These compounds were tested against T1, CRF1 receptors (Homo sapiens, UniProt P34998) (assay: CRF1 receptor radioligand binding assay ([125I]-oCRF competition, IMR-32 cell membranes)). Details: IMR-32 cell membranes, [125I]-oCRF 100 pM; read-out: Ki (CRF-1R).
T1 construct: endogenous in cells; host or cells: IMR-32 cells, transformed with 2.5 µM 5'-bromo-2'-deoxyuridine for 10 days; membrane preparation
T1 sequence (P34998 24-415): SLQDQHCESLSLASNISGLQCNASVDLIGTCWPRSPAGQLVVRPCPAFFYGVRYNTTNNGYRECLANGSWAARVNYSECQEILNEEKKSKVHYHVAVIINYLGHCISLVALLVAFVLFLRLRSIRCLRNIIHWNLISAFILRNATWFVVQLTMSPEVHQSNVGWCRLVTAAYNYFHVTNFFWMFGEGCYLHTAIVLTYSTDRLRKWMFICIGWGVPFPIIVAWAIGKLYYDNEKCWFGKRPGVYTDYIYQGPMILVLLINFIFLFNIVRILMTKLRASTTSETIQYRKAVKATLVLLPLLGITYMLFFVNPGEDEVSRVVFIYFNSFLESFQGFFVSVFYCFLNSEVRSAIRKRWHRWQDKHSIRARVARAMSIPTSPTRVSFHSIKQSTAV
Description: CRF1 receptor antagonists, by occupying the same receptors, blocks the accessibility of the receptors to CRF, a hypothalamic factor mediating body's responses to physiological and psychological stress. The following radioligand binding assay examines the ability of the antagonists to bind the CRF1 receptors by assessing their ability to compete with binding of CRF to the receptors in cell membrane.
Tissue culture and membrane preparation. IMR-32 cells were grown at 37° C. in 5% CO2 as a monolayer in medium consisting of MEM supplemented with 10% heat-inactivated fetal bovine serum, 0.1 mM nonessential amino acids, 1 mM sodium pyruvate and 2 mM L-glutamine. […] After transformation, cells were rinsed twice with phosphate-buffered saline, and incubated for 10–15 min. at 4° C. in homogenization buffer consisting of 50 mM Tris (pH 7.2), 10 mM MgCl2 and 2 mM EGTA. Cells were transferred from plates to polypropylene tubes (16×100 mm), homogenized and centrifuged at 32,000×g for 15 min. Pellets were resuspended by homogenization in buffer and centrifuged at 32,000×g for 15 min. Pellets were resuspended in homogenization buffer then stored at −80° C. until needed.
Radioligand binding assays. […] The assay buffer consisted of 50 mM Tris (pH 7.2), 10 mM MgCl2, 0.5% BSA, 0.005% Triton X-100, 10 μg/mL aprotinin and 10 μg/mL leupeptin. Assays were stopped by addition of ice-cold wash buffer (50 mM Tris, pH 7.4 and 0.2% BSA). Filtration over glass fiber filters (Whatman GF/B) previously soaked in 50 mM Tris, pH 7.2 and 1% BSA was carried out using a Brandel cell harvester. Filters were washed with 10 mL of ice-cold wash buffer. Non-specific binding was defined with 10 μM oCRF. IC50 values for oCRF and test compounds were calculated by nonlinear regression using a one-site binding curve (GraphPad Prism).

| Ki [nM] | Compound |
| --- | --- |
| < 10000 | CCCN(Cc1cccc(F)c1)C(=O)c1c(CC)nc2n1CCN2c1c(C)cc(C)cc1C [Example 26, 2-Ethyl-7-(2,4,6-trimethyl-phenyl)-6,7-dihydro-5H-imidazo[1,2-a]imidazole-3-carboxylic acid (3-fluoro-benzyl)-propyl-amide] |
| < 100 | CCc1nc2n(c1C(=O)N(CC1CC1)CC(F)(F)F)CCN2c1c(C)cc(C)cc1Cl [Example 27, 7-(2-Chloro-4,6-dimethyl-phenyl)-2-ethyl-6,7-dihydro-5H-imidazo[1,2-a]imidazole-3-carboxylic acid cyclopropylmethyl-(2,2,2-trifluoro-ethyl)-amide] |
| < 100 | CCCN(CC1CC1)C(=O)c1c(CC)nc2n1CCN2c1c(C)cc(C)cc1Cl [Example 28, 7-(2-Chloro-4,6-dimethyl-phenyl)-2-ethyl-6,7-dihydro-5H-imidazo[1,2-a]imidazole-3-carboxylic acid cyclopropylmethyl-propyl-amide] |
| < 1000 | CCc1nc2n(c1C(=O)N(CCC(F)(F)F)CC1CC1)CCN2c1c(C)cc(C)cc1Cl [Example 29, 7-(2-Chloro-4,6-dimethyl-phenyl)-2-ethyl-6,7-dihydro-5H-imidazo[1,2 a]imidazole-3-carboxylic acid cyclopropylmethyl-(3,3,3-trifluoro-propyl)-amide] |
| < 100 | CCc1nc2n(c1C(=O)N(CC1CC1)CC(F)(F)F)CCN2c1c(C)cc(Cl)cc1Cl [Example 30, 7-(2,4-Dichloro-6-methyl-phenyl)-2-ethyl-6,7-dihydro-5H-imidazo[1,2-a]imidazole-3-carboxylic acid cyclopropylmethyl-(2,2,2-trifluoro-ethyl)-amide] |
| < 100 | CCCN(CC1CC1)C(=O)c1c(CC)nc2n1CCN2c1c(C)cc(Cl)cc1Cl [Example 31, 7-(2,4-Dichloro-6-methyl-phenyl)-2-ethyl-6,7-dihydro-5H-imidazo[1,2-a]imidazole-3-carboxylic acid cyclopropylmethyl-propyl-amide] |
| < 100 | CCc1nc2n(c1C(=O)N(CC1CC1)CC(F)(F)C(F)(F)F)CCN2c1c(C)cc(Cl)cc1Cl [Example 32, 7-(2,4-Dichloro-6-methyl-phenyl)-2-ethyl-6,7-dihydro-5H-imidazo[1,2-a]imidazole-3-carboxylic acid cyclopropylmethyl-(2,2,3,3,3-pentafluoro-propyl)-amide] |
| < 100 | CCCN(CC(F)(F)F)C(=O)c1c(CC)nc2n1CCN2c1c(C)cc(Cl)cc1Cl [Example 33, 7-(2,4-Dichloro-6-methyl-phenyl)-2-ethyl-6,7-dihydro-5H-imidazo[1,2-a]imidazole-3-carboxylic acid propyl-(2,2,2-trifluoro-ethyl)-amide] |
| < 1000 | CCc1nc2n(c1C(=O)N(CC1CC1)CC(F)(F)F)CCN2c1ccc(C(C)C)cc1Br [Example 34, 7-(2-Bromo-4-isopropyl-phenyl)-2-ethyl-6,7-dihydro-5H-imidazo[1,2-a]imidazole-3-carboxylic acid cyclopropylmethyl-(2,2,2-trifluoro-ethyl)-amide] |
| < 10000 | CCCN(CC1CC1)C(=O)c1c(CC)nc2n1CCN2c1ccc(C(C)C)cc1Br [Example 35, 7-(2-Bromo-4-isopropyl-phenyl)-2-ethyl-6,7-dihydro-5H-imidazo[1,2-a]imidazole-3-carboxylic acid cyclopropylmethyl-propyl-amide] |
| < 1000 | CCCN(CC(F)(F)F)C(=O)c1c(CC)nc2n1CCN2c1ccc(C(C)C)cc1Br [Example 36, 7-(2-Bromo-4-isopropyl-phenyl)-2-ethyl-6,7-dihydro-5H-imidazo[1,2-a]imidazole-3-carboxylic acid propyl-(2,2,2-trifluoro-ethyl)-amide] |
| < 1000 | CCc1nc2n(c1C(=O)N(CC1CC1)CC(F)(F)C(F)(F)F)CCN2c1ccc(C(C)C)cc1Br [Example 37, 7-(2-Bromo-4-isopropyl-phenyl)-2-ethyl-6,7-dihydro-5H-imidazo[1,2-a]imidazole-3-carboxylic acid cyclopropylmethyl-(2,2,3,3,3-pentafluoro-propyl)-amide] |
| < 10000 | CCCN(CC1CCC1)C(=O)c1c(CC)nc2n1CCN2c1ccc(C(C)C)cc1Br [Example 38, 7-(2-Bromo-4-isopropyl-phenyl)-2-ethyl-6,7-dihydro-5H-imidazo[1,2-a]imidazole-3-carboxylic acid cyclobutylmethyl-propyl-amide] |
| < 10000 | CCc1nc2n(c1C(=O)N(CCC(F)(F)F)CC1CC1)CCN2c1ccc(C(C)C)cc1Br [Example 39, 7-(2-Bromo-4-isopropyl-phenyl)-2-ethyl-6,7-dihydro-5H-imidazo[1,2-a]imidazole-3-carboxylic acid cyclopropylmethyl-(3,3,3-trifluoro-propyl)-amide] |
| < 10000 | CCc1nc2n(c1C(=O)N(CC)CC1CC1)CCN2c1ccc(C(C)C)cc1Br [Example 40, 7-(2-Bromo-4-isopropyl-phenyl)-2-ethyl-6,7-dihydro-5H-imidazo[1,2-a]imidazole-3-carboxylic acid cyclopropylmethyl-ethyl-amide] |
| < 1000 | CCCN(CCc1ccccc1)C(=O)c1c(CC)nc2n1CCN2c1c(C)cc(C)cc1Br [Example 41, 7-(2-Bromo-4,6-dimethyl-phenyl)-2-ethyl-6,7-dihydro-5H-imidazo[1,2-a]imidazole-3-carboxylic acid phenethyl-propyl-amide] |
| < 1000 | CCCN(CC1CCC1)C(=O)c1c(CC)nc2n1CCN2c1c(C)cc(C)cc1Br [Example 42, 7-(2-Bromo-4,6-dimethyl-phenyl)-2-ethyl-6,7-dihydro-5H imidazo[1,2-a]imidazole-3-carboxylic acid cyclobutylmethyl-propyl-amide] |
| < 1000 | CCc1nc2n(c1C(=O)N(CC)CC1CCC1)CCN2c1c(C)cc(C)cc1Br [Example 43, 7-(2-Bromo-4,6-dimethyl-phenyl)-2-ethyl-6,7-dihydro-5H-imidazo[1,2-a]imidazole-3-carboxylic acid cyclobutylmethyl-ethyl-amide] |
| < 100 | CCc1nc2n(c1C(=O)N(CC1CC1)CC(F)(F)F)CCN2c1c(C)cc(C)cc1Br [Example 44, 7-(2-Bromo-4,6-dimethyl-phenyl)-2-ethyl-6,7-dihydro-5H-imidazo[1,2-a]imidazole-3-carboxylic acid cyclopropylmethyl-(2,2,2-trifluoro-ethyl)-amide] |
| < 1000 | CCCN(CCC(F)(F)F)C(=O)c1c(CC)nc2n1CCN2c1c(C)cc(C)cc1Br [Example 45, 7-(2-Bromo-4,6-dimethyl-phenyl)-2-ethyl-6,7-dihydro-5H-imidazo[1,2-a]imidazole-3-carboxylic acid propyl-(3,3,3-trifluoro-propyl)-amide] |
| < 10000 | CCCN(CC1CC1)C(=O)c1c(CC)nc2n1CCN2c1c(C)cc(C)cc1Br [Example 46, 7-(2-Bromo-4,6-dimethyl-phenyl)-2-ethyl-6,7-dihydro-5H-imidazo[1,2-a]imidazole-3-carboxylic acid cyclopropylmethyl-propyl-amide] |
| < 1000 | CCCC(O)(CCC)c1c(CC)nc2n1CCN2c1c(C)cc(C)cc1C [Example 47, 4-[2-Ethyl-7-(2,4,6-trimethyl-phenyl)-6,7-dihydro-5H-imidazo[1,2-a]imidazol-3-yl]-heptan-4-ol] |
| < 100 | CCC=C(CCC)c1c(CC)nc2n1CCN2c1c(C)cc(C)cc1C [Example 48, 6-Ethyl-5-(1-propyl-but-1-enyl)-1-(2,4,6-trimethyl-phenyl)-2,3-dihydro-1H-imidazo[1,2-a]imidazole] |
| < 1000 | CCCC(CCC)c1c(CC)nc2n1CCN2c1c(C)cc(C)cc1C [Example 49, 6-Ethyl-5-(1-propyl-butyl)-1-(2,4,6-trimethyl-phenyl)-2,3-dihydro-1H-imidazo[1,2-a]imidazole] |
| < 100 | CCC=C(CCC)c1c(CC)nc2n1CCN2c1c(C)cc(C)cc1Cl [Example 50, 1-(2-Chloro-4,6-dimethyl-phenyl)-6-ethyl-5-(1-propyl-but-1-enyl)-2,3-dihydro-1H-imidazo[1,2-a]imidazole] |
| < 10000 | CCCN(CC1CC1)C(=O)c1c(CC)nc2n1CCCN2c1c(C)cc(C)cc1C [Example 54, 2-Ethyl-8-(2,4,6-trimethyl-phenyl)-5,6,7,8-tetrahydro-imidazo[1,2-a]pyrimidine-3-carboxylic acid cyclopropylmethyl-propyl-amide] |

Reference: patent US7125990B2, “Imidazolyl derivatives as corticotropin releasing factor inhibitors” (Bristol-Myers Squibb COmpany, priority 2001, dated 2006)
